These results are taken from a melting point compilation (Tetko et al.).

The melting point is the temperature of the solid-liquid transition.

In the case of `COc1cc(C(=O)O)c(F)cc1N`, the melting point fell in the range of 189 to 191 °C.
Next, `Cc1cc(-c2nc(C)cs2)c(=O)[nH]n1`: 267 to 269 °C.
In the case of `O=C(Nc1ccccc1)OCC(F)(F)F`, the melting point was 62 to 65 °C.
The figure for `NCCCN1CCN(c2ncccn2)CC1` is 72 to 74 °C.
In turn, `O=C(C=NO)Nc1cccc(C(F)(F)F)c1` registered a melting point of 115 to 117 °C.
The figure for `CC(C)CCc1cc(N)on1` is 61 to 63 °C.
The figure for `O=C(O)Cc1c[nH]c2ccc([N+](=O)[O-])cc12` is 189 to 191 °C.
The figure for `CCCc1c(C(=O)O)nnn1-c1cccc(C(C)C)c1` is 78 to 80 °C; for `O=C(Nc1ccc2c(c1)OCCO2)OCC(F)(F)F` it is 103 to 105 °C.
The compound `CCN(CC)C(=O)c1ccc(S(=O)(=O)Cl)cc1` returned a melting point of 59 to 61 °C.
Next, `Cc1n[nH]cc1C=O`: 104 to 106 °C; `CC(C)(Oc1cccc(Cl)c1)C(=O)O`: 59 to 61 °C.
In the case of `O=C(O)Cc1csc(-c2ccc3c(c2)OCO3)n1`, the melting point lay in the range of 175 to 177 °C.
Next, `C1CCC(c2nnn[nH]2)CC1`: 109 to 111 °C; `Cc1ccc(-c2nnco2)cc1N`: 136 to 138 °C.
In turn, `Cn1ccc(C(=O)N2CCCCC2CC(=O)O)cc1=O` (stereo not given) returned a melting point of 194 to 196 °C.
Next, `Nc1ccc(Oc2ccccn2)cc1`: 62 to 64 °C; `O=C(C1=CNCCC1)c1ccccc1`: 90 to 92 °C; `N#Cc1ccc(Cn2cncn2)c(F)c1`: 107 to 109 °C.
Next, `COc1ccc(NS(=O)(=O)Cc2ccc(N)cc2)cc1`: 153 to 155 °C; `CC1(c2ccc3c(c2)OCCO3)NC(=O)NC1=O` (stereo not given): 180 to 182 °C; `Cn1cc(N2C(=O)C=CC2=O)cn1`: 151 to 153 °C.
Next, `Cc1cc(C)c(CBr)c(C)c1`: 49 to 51 °C.
For `CC(C)(C)OC(=O)Nc1ccc(C(=O)O)cc1O`, the melting point fell in the range of 179 to 181 °C.
`O=C(O)C(NCc1ccccc1)C1CC1` (stereo not given) returned a melting point of 228 to 230 °C.
The figure for `N#CC1(N2CCN(Cc3ccccc3)CC2)CCOCC1` is 105 to 107 °C; for `Cc1cc2c(cc1Br)NC(=O)C(C)O2` (stereo not given) it is 208 to 210 °C.
As to `COc1cc(C#N)ccc1OC(C)C`, the melting point was in the range of 71 to 73 °C.
Next, `CCCn1c(C)c(C(=O)OCC)c2cc(O)ccc21`: 179 to 181 °C; `Oc1ccc2nccnc2c1`: 225 to 227 °C.
The figure for `O=C(CC1(C(=O)O)CCCCC1)NC1CC1` is 151 to 153 °C; for `O=C(O)CCOc1ccc([N+](=O)[O-])cc1` it is 116 to 118 °C; for `O=C(c1ccc2c(c1)CCCN2)N1CCOCC1` it is 142 to 144 °C.
Next, `COCCNC(=O)Cc1ccc(N)cc1`: 50 to 52 °C.
Turning to `O=C(O)c1cocn1`, the melting point fell in the range of 129 to 131 °C.
Next, `Cc1n[nH]c(C)c1NC(=O)CCl`: 160 to 162 °C; `N#Cc1c(C(=O)O)cc(C2CC2)[nH]c1=S`: 258 to 260 °C.
Next, `N#Cc1cc(Br)c2cc[nH]c2c1`: 139 to 141 °C.
Compound `CC(=O)CC(=O)Nc1cccc(C)c1` returned a melting point of 57 to 59 °C.
In the case of `COC(=O)NC1(C(=O)O)CCCC1`, the melting point was in the range of 131 to 133 °C.
The figure for `Cc1n[nH]c(C)c1CC(=O)O` is 151 to 155 °C; for `COC(=O)c1ccc(S(=O)(=O)Cl)cc1` it is 65 to 70 °C; for `c1ccc(NC2CCNC2)cc1` (stereo not given) it is 77 to 79 °C.
For `O=C(Nc1ccccn1)c1ccc(O)cc1`, the melting point lay within 176 to 178 °C.
Next, `O=C(Cn1cc(C(=O)O)cn1)NC1CCCCC1`: 247 to 249 °C; `CNCc1nnn[nH]1`: 224 to 226 °C.
Turning to `Oc1ccc2cn[nH]c2c1`, the melting point is 189 to 191 °C.
The figure for `COC(=O)c1ccc(OCCBr)c(Cl)c1` is 72 to 74 °C; for `COC(=O)c1ccc(C)c(NCc2[nH]cnc2C)c1` it is 180 to 182 °C; for `NC(=O)NCc1ccccn1` it is 139 to 141 °C.
As for `CC(C)c1nnc(S)n1C1CC1`, the melting point lay in the range of 146 to 148 °C.
The figure for `O=C(O)c1cc(S(=O)(=O)Cl)ccc1Cl` is 105 to 115 °C; for `O=C(CC(=O)C(F)F)c1ccco1` it is 39 to 41 °C.
For `NC(=O)c1cc(-c2csc(N)n2)c[nH]1`, the melting point was 235 to 237 °C.
The figure for `Nc1ccc(Br)c(C(=O)O)c1` is 171 to 179 °C.
The figure for `O=C(O)C1C2CCCCC21` (stereo not given) is 86 to 88 °C; for `NCC1(O)CCOCC1` it is 65 to 67 °C.
Take `COc1cccc(-c2nnc(N)o2)c1OC`: the melting point lay in the range of 185 to 187 °C.
In turn, `Oc1ccccc1-n1ccnc1` gave a melting point of 218 to 220 °C.
The figure for `Cc1nc2sccn2c1C=O` is 94 to 96 °C; for `Nc1nc2cnc(Cl)nc2s1` it is 209 to 211 °C.
The figure for `Cc1ccc(S(C)(=O)=O)cc1S(=O)(=O)Cl` is 136 to 138 °C.
`O=C(O)c1ccc2nnc(C3CC3)n2c1`: the melting point was in the range of 290 to 292 °C.
Compound `CCOc1ccc(OC)cc1N` showed a melting point of 45 to 47 °C.
As to `O=C(O)c1cc(N2CCCC2=O)ccc1Cl`, the melting point was in the range of 159 to 161 °C.
The figure for `CC1(CCc2ccccc2)NC(=O)N(N)C1=O` (stereo not given) is less than 17 °C; for `N#Cc1c(NC(=O)CCl)sc2c1CCC2` it is 176 to 178 °C; for `O=C(c1ccc(Cl)nc1)N1CCc2ccccc21` it is 132 to 134 °C.
The figure for `Cc1ccc(-c2csc(CC(N)=NO)n2)cc1` is 146 to 148 °C; for `COc1ccc([N+](=O)[O-])cc1CCl` it is 78 to 80 °C; for `Nc1nc2ccccc2nc1Cl` it is 141 to 143 °C.
Next, `CC1CNc2ccccc2NC1=O` (stereo not given): 203 to 205 °C.
Consider `NS(=O)(=O)c1c(F)cccc1[N+](=O)[O-]`, for which the melting point was 163 to 165 °C.
Next, `O=C(O)C1(c2cccc(C(F)(F)F)c2)CCCCC1`: 144 to 146 °C.
The figure for `Cc1cc(S(N)(=O)=O)c(C)cc1Br` is 207 to 209 °C; for `Cc1cc(CSc2ccccc2C(=O)O)on1` it is 157 to 161 °C.
Next, `CCc1nc2ccccc2n1C1CCNCC1`: 99 to 101 °C; `O=C1CCc2cc(Cl)c(S(=O)(=O)Cl)cc2N1`: 207 to 209 °C; `Cc1c(Br)ccc(S(N)(=O)=O)c1C`: 195 to 197 °C.
For `NC(=O)CCSc1ccccc1F`, the melting point lay within 84 to 86 °C.
The figure for `CC(C)C1(C(=O)O)CC1` is 54 to 56 °C; for `CSc1cccc(NC(=O)C(C)Cl)c1` (stereo not given) it is 81 to 83 °C; for `Nc1ncn(C2CCCCC2)n1` it is 129 to 131 °C.
`CC(=O)c1cnn(C)c1C` came in with a melting point of 47 to 49 °C.
Next, `OCCc1c[nH]nc1C(F)(F)F`: 90 to 92 °C; `Nc1ccc(S(=O)(=O)Nc2ccc(Cl)cc2)cc1N`: 146 to 150 °C; `CC(C)(C)Cc1cc(N)on1`: 87 to 89 °C.
In turn, `CC(C)(C)Oc1ccc(N)cc1` came in with a melting point of 60 to 62 °C.
The figure for `CCOC(=O)c1sc2nc(C)nn2c1C` is 87 to 89 °C; for `CCC(C)Nc1ccc(C(N)=O)cc1` (stereo not given) it is 113 to 115 °C.
